Assay results taken from ChEMBL document CHEMBL1131130, “Structure-based design of beta-lactamase inhibitors. 1. Synthesis and evaluation of bridged monobactams” (J Med Chem, 1998).
Converted amounts (≈) assume the structure as drawn. The source made the active and inactive calls. The rule behind the calls is not given here.

How the values were obtained:
Escherichia coli = experiment: In vitro inhibition of Escherichia coli TEM-3 growth.; format: functional
Pseudomonas aeruginosa = experiment: In vitro inhibition of Pseudomonas aeruginosa 18SH growth.; format: functional
Citrobacter freundii = experiment: In vitro inhibition of Citrobacter freundii 1982 growth.; format: functional
Beta-lactamase = Beta-lactamase (Pseudomonas aeruginosa (strain ATCC 15692 / PAO1 / 1C / PRS 101 / LMG12228), UniProt P24735); experiment: Inhibition of Pseudomonas aeruginosa 18SH Beta-lactamase.
Beta-lactamase, sequence (P24735 whole entry): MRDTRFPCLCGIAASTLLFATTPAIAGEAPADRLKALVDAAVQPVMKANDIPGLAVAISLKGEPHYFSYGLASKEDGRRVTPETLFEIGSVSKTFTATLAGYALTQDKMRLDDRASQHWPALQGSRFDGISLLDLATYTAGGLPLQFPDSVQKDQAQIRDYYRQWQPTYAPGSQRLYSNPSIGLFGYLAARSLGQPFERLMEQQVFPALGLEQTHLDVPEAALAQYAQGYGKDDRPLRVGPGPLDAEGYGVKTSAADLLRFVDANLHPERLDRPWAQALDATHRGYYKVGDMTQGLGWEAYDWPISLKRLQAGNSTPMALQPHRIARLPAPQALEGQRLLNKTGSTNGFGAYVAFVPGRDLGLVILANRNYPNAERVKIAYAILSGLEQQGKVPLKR

[1] = Relative permeability as IC50 for beta lactamase inhibition in intact Citrobacter freundii growing cells to the observed IC50 in the same cells treated with 0.7% final concentration of octyl-poly(oxyethylene); format: functional
[2] = Relative permeability as IC50 for beta lactamase inhibition in intact Pseudomonas aeruginosa growing cells to the observed IC50 in the same cells treated with 0.7% final concentration of octyl-poly(oxyethylene); format: functional
[3] = molecular target: Beta-lactamase (Pseudomonas aeruginosa (strain ATCC 15692 / PAO1 / 1C / PRS 101 / LMG12228)) (UniProt P24735)
Beta-lactamase (Pseudomonas aeruginosa (strain ATCC 15692 / PAO1 / 1C / PRS 101 / LMG12228)), sequence (P24735 27-397 limits assumed): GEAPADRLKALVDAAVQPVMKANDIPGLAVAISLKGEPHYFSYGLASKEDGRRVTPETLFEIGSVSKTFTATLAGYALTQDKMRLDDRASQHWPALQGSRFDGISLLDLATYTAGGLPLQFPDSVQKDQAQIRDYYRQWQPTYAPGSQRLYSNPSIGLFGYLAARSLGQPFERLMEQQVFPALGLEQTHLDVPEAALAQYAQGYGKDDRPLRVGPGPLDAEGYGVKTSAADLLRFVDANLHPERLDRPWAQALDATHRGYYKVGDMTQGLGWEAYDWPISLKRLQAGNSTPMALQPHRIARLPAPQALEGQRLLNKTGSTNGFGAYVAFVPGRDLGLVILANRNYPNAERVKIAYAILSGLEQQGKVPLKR
Description: Time taken for deacylation of Pseudomonas aeruginosa 18SH Beta-lactamase

[4] = molecular target: Beta-lactamase (Pseudomonas aeruginosa (strain ATCC 15692 / PAO1 / 1C / PRS 101 / LMG12228)) (UniProt P24735); remark: listed apart in the source
Description: Acylation of Pseudomonas aeruginosa 18SH Beta-lactamase

[5] = molecular target: Beta-lactamase (Pseudomonas aeruginosa (strain ATCC 15692 / PAO1 / 1C / PRS 101 / LMG12228)) (UniProt P24735); remark: listed apart in the source
Description: Affinity for stable acyl 18SH Beta-lactamase complex of Pseudomonas aeruginosa

[6] = molecular target: Beta-lactamase (Pseudomonas aeruginosa (strain ATCC 15692 / PAO1 / 1C / PRS 101 / LMG12228)) (UniProt P24735); remark: listed apart in the source
Description: Deacylation of 18SH Beta-lactamase of Pseudomonas aeruginosa

Beta-lactamase TEM = Beta-lactamase TEM (Escherichia coli, UniProt P62593); experiment: Inhibitory activity against Escherichia coli TEM-3 Beta-lactamase;NA=not active
Beta-lactamase TEM, sequence (P62593 24-286 limits assumed): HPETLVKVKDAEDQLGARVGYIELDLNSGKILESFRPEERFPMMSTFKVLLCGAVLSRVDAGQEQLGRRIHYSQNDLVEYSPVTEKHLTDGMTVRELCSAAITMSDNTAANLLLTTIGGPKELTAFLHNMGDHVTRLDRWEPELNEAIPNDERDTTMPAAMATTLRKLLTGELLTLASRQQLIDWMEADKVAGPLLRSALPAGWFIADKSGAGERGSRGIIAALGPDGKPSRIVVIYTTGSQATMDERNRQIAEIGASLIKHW

[7] = Relative permeability as IC50 for beta lactamase inhibition in intact Citrobacter freundii growing cells to the observed IC50 in the same cells treated with 0.7% final concentration of octyl-poly(oxyethylene);NA= Not active; format: functional, cell-based
[8] = Relative permeability as IC50 for beta lactamase inhibition in intact Pseudomonas aeruginosa growing cells to the observed IC50 in the same cells treated with 0.7% final concentration of octyl-poly(oxyethylene);NA= Not active; format: functional, cell-based

SMILES | MIC (Escherichia coli) [µg/mL] | MIC (Pseudomonas aeruginosa) [µg/mL] | MIC (Citrobacter freundii) [µg/mL] | IC50 (Beta-lactamase) [nM] | Ratio [1] | Ratio [2] | k off [3] [s⁻¹] | Kon [4] [s⁻¹] | Ks [5] [µM] | k off [6] [s⁻¹] | IC50 (Beta-lactamase TEM) | Ratio [7] | Ratio [8]
O=C(OCc1ccccc1)N1CC[C@@H]2[C@H]1C(=O)N2S(=O)(=O)[O-].[Na+] | 16 | 128 | 8 | 200 | – | – | – | – | – | – | – | – | –
[NH-]C(=O)c1ccc[n+](CC(=O)N2CC[C@@H]3[C@H]2C(=O)N3S(=O)(=O)[O-])c1.[Na+] | 8 | – | – | 27 | 0.8 | 1.2 | 9e-06 | 0.9 | 65 | – | – | – | –
O=C(NC1CCNCC1)N1CC[C@@H]2[C@H]1C(=O)N2S(=O)(=O)[O-].[Na+] | 16 | – | – | 3900 | 1.7 | 1 | – | 1.5 | 1480 | 0.0012 | – | – | –
Cn1nnnc1S[C@@H]1CN(C(=O)OCc2ccccc2)[C@@H]2C(=O)N(S(=O)(=O)[O-])[C@@H]21.[Na+] | 16 | – | – | 613 | 10 | 68 | – | 3.8 | 15 | 4.1e-05 | – | – | –
O=C(O)[C@H]1/C(=C/CO)O[C@@H]2CC(=O)N21 [CLAVULANIC ACID] | 0.25 (≈ 1.26 µM) | > 32 | 8 (≈ 40.2 µM) | – | – | – | – | – | – | – | – | – | –
O=C(OCc1ccccc1)N1C[C@H](F)[C@@H]2[C@H]1C(=O)N2S(=O)(=O)[O-].[Na+] | 16 | > 16 | > 16 | 380 | – | – | – | – | – | – | – | – | –
O=C(Nc1ccccc1)N1CC[C@@H]2[C@H]1C(=O)N2S(=O)(=O)[O-].[Na+] | 4 | 8 | 2 | – | – | – | – | – | – | – | 420 nM (not active) | – | –
NC(=O)c1cccc(NC(=O)N2CC[C@@H]3[C@H]2C(=O)N3S(=O)(=O)[O-])c1.[Na+] | 16 | 16 | 1 | 24 | – | – | – | – | – | – | – | – | –
CC(C)(C)OC(=O)N1CC[C@@H]2[C@H]1C(=O)N2S(=O)(=O)[O-].[Na+] | 16 | – | – | 1500 | – | 24 | – | 11 | 127 | 3.7e-05 | – | inactive | –
NC(C(=O)N1CC[C@@H]2[C@H]1C(=O)N2S(=O)(=O)[O-])c1ccc(O)cc1.[Na+] (stereo partly drawn) | 8 | – | – | 90 | 8.7 | 8.2 | – | 2.7 | 6.9 | < 1e-05 | – | – | –
NC(=O)Nc1ccc(NC(=O)N2CC[C@@H]3[C@H]2C(=O)N3S(=O)(=O)[O-])cc1.[Na+] | 16 | 4 | 0.25 | 48 | – | – | – | – | – | – | – | – | –
CC(C)(C)OC(=O)N1CCC[C@@H]2[C@H]1C(=O)N2S(=O)(=O)[O-].[Na+] | 16 | – | – | 145000 | – | – | – | 0.5 | 3500 | 0.0007 | – | inactive | inactive
O=C(Nc1ccc(O)cc1)N1CC[C@@H]2[C@H]1C(=O)N2S(=O)(=O)[O-].[Na+] | 8 | – | – | 155 | 0.6 | 38 | – | 0.4 | 50 | 5.3e-05 | – | – | –
NC(=O)/C=C1\CN(C(=O)OCc2ccccc2)[C@@H]2C(=O)N(S(=O)(=O)[O-])[C@H]12.[Na+] | 16 | > 16 | > 16 | 1040 | – | – | – | – | – | – | – | – | –
NC(=O)c1ccc(NC(=O)N2CC[C@@H]3[C@H]2C(=O)N3S(=O)(=O)[O-])cc1.[Na+] | 16 | 4 | 0.5 | 217 | – | – | – | – | – | – | – | – | –

More lines, main results first:

MIC (Escherichia coli) [µg/mL] | MIC (Pseudomonas aeruginosa) [µg/mL] | MIC (Citrobacter freundii) [µg/mL] | IC50 (Beta-lactamase) [nM] | SMILES | Ratio [1] | Ratio [2] | k off [3] [s⁻¹] | Kon [4] [s⁻¹] | Ks [5] [µM] | k off [6] [s⁻¹] | IC50 (Beta-lactamase TEM) | Ratio [7] | Ratio [8]
8 | 128 | 1 | 853 | Cn1cnnc1SCC(=O)N1CC[C@@H]2[C@H]1C(=O)N2S(=O)(=O)[O-].[Na+] | – | – | – | – | – | – | – | – | –
16 | 8 | 0.5 | 110 | O=C(/C=C/c1c[nH]cn1)N1CC[C@@H]2[C@H]1C(=O)N2S(=O)(=O)[O-].[Na+] | – | – | – | – | – | – | – | – | –
8 | 8 | 0.5 | 200 | Cn1nnnc1SCC(=O)N1CC[C@@H]2[C@H]1C(=O)N2S(=O)(=O)[O-].[Na+] | – | – | – | – | – | – | – | – | –
8 | 128 | 8 | 25 | O=C(CNc1ccc(O)cc1)N1CC[C@@H]2[C@H]1C(=O)N2S(=O)(=O)[O-].[Na+] | – | – | – | – | – | – | – | – | –
16 | 8 | 1 | 612 | Cn1ccnc1SCC(=O)N1CC[C@@H]2[C@H]1C(=O)N2S(=O)(=O)[O-].[Na+] | – | – | – | – | – | – | – | – | –
16 | 16 | 0.25 | 55 | Cc1nn(C)c(SCC(=O)N2CC[C@@H]3[C@H]2C(=O)N3S(=O)(=O)[O-])nc1=O.[Na+] | – | – | – | – | – | – | – | – | –
16 | 4 | 1 | 2250 | O=C1NCC[C@@H]1NC(=O)N1CC[C@@H]2[C@H]1C(=O)N2S(=O)(=O)[O-].[Na+] | – | – | – | – | – | – | – | – | –
